Experimental data taken from patent US8952024B2, “Herbicidal pyrimidone derivatives” (E I du Pont de Nemours and Company, priority 2009, dated 2015).

Assays:
Test in all cases: Test B pre-/postemergence plant response
Assay type in all cases: in vivo
[1] = tested on: downy bromegrass (Bromus tectorum)
Summary of the method: (§1)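 Each species received compound formulated in non-phytotoxic solvent with surfactant, either at planting into a loam and sand blend or as a foliar spray once plants reached 2 to 18 cm in peat-based medium. Plants stayed in the greenhouse 13 to 15 days before visual evaluation against controls, scored 0 (no effect) to 100 (complete control).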

[2] = tested on: ragweed (common ragweed, Ambrosia elatior)
Summary of the method: as §1

[3] = tested on: Surinam grass (Brachiaria decumbens)
Summary of the method: as §1

[4] = tested on: corn (Zea mays)
Summary of the method: as §1

[5] = tested on: yellow nutsedge (Cyperus esculentus)
Summary of the method: as §1

[6] = tested on: velvetleaf (Abutilon theophrasti)
Summary of the method: as §1

[7] = tested on: Italian ryegrass (Lolium multiflorum)
Summary of the method: as §1

[8] = tested on: kochia (Kochia scoparia)
Summary of the method: as §1

[9] = tested on: giant foxtail (Setaria faberii)
Summary of the method: as §1

[10] = 62 g ai/ha, postemergence, 0 is no effect, 100 is complete control, 13 to 15 days

SMILES: O=C1CCCC(O)=C1C(=O)c1cnc(-c2ccccc2)n(C2CCCCC2)c1=O [Compound 128, 3-cyclohexyl-5-[(2-hydroxy-6-oxo-1-cyclohexen-1-yl)carbonyl]-2-phenyl-4(3H)-pyrimidinone]
- Bromegrass, Downy plant response rating (0 to 100 scale) [1, 10]: 35
- pest or weed control at 31 g/ha ([1]; Bromus tectorum, post-emergence, Postemergence, 31 g ai/ha, 0 to 100 scale (0 no effect, 100 complete control), read-out: Plant response rating, Bromegrass, Downy): 30%
- pest or weed control at 125 g/ha ([1]; Bromus tectorum, post-emergence, Postemergence, 125 g ai/ha, scale 0 to 100 (0 no effect, 100 complete control), read-out: Plant response rating, Bromegrass, Downy): 40%
- pest or weed control at 250 g/ha ([1]; Bromus tectorum, post-emergence, Postemergence, 250 g ai/ha, scale 0 to 100 (0 no effect, 100 complete control), 13 to 15 days, read-out: Plant response rating, Bromegrass, Downy): 50%
- Ragweed plant response rating (0 to 100 scale) [2, 10]: 85
- pest or weed control at 31 g/ha ([2]; Ambrosia artemisiifolia, post-emergence, 360 h, Postemergence, 31 g ai/ha, 0 to 100 scale (0 no effect, 100 complete control), read-out: Plant response rating, Ragweed): 85%
- pest or weed control at 125 g/ha ([2]; Ambrosia artemisiifolia, post-emergence, 360 h, Postemergence, 125 g ai/ha, scale 0 to 100 (0 no effect, 100 complete control), read-out: Plant response rating, Ragweed): 95%
- pest or weed control at 250 g/ha ([2]; Ambrosia artemisiifolia, post-emergence, 360 h, Postemergence, 250 g ai/ha, scale 0 to 100 (0 no effect, 100 complete control), 13 to 15 days, read-out: Plant response rating, Ragweed): 98%
- Surinam Grass plant response rating (0 to 100 scale) [3, 10]: 80
- pest or weed control at 31 g/ha ([3]; Urochloa decumbens, post-emergence, Postemergence, 31 g ai/ha, 0 to 100 scale (0 no effect, 100 complete control), read-out: Plant response rating, Surinam Grass): 50%
- pest or weed control at 125 g/ha ([3]; Urochloa decumbens, post-emergence, Postemergence, 125 g ai/ha, scale 0 to 100 (0 no effect, 100 complete control), read-out: Plant response rating, Surinam Grass): 85%
- pest or weed control at 250 g/ha ([3]; Urochloa decumbens, post-emergence, Postemergence, 250 g ai/ha, scale 0 to 100 (0 no effect, 100 complete control), 13 to 15 days, read-out: Plant response rating, Surinam Grass): 85%
- Corn plant response rating (0 to 100 scale) [4, 10]: 50
- Corn plant response rating (crop injury, 0 = no effect, 100 = complete kill) at 31 g/ha ([4]; Zea mays, post-emergence, Postemergence, 31 g ai/ha, 0 to 100 scale (0 no effect, 100 complete control)): 40%
- Corn plant response rating (crop injury, 0 = no effect, 100 = complete kill) at 125 g/ha ([4]; Zea mays, post-emergence, Postemergence, 125 g ai/ha, scale 0 to 100 (0 no effect, 100 complete control)): 60%
- Corn plant response rating (crop injury, 0 = no effect, 100 = complete kill) at 250 g/ha ([4]; Zea mays, post-emergence, Postemergence, 250 g ai/ha, scale 0 to 100 (0 no effect, 100 complete control), 13 to 15 days): 60%
- Nutsedge, Yellow plant response rating (0 to 100 scale) [5, 10]: 35
- pest or weed control at 31 g/ha ([5]; Cyperus, post-emergence, Postemergence, 31 g ai/ha, 0 to 100 scale (0 no effect, 100 complete control), read-out: Plant response rating, Nutsedge, Yellow): 20%
- pest or weed control at 125 g/ha ([5]; Cyperus, post-emergence, Postemergence, 125 g ai/ha, scale 0 to 100 (0 no effect, 100 complete control), read-out: Plant response rating, Nutsedge, Yellow): 60%
- pest or weed control at 250 g/ha ([5]; Cyperus, post-emergence, Postemergence, 250 g ai/ha, scale 0 to 100 (0 no effect, 100 complete control), 13 to 15 days, read-out: Plant response rating, Nutsedge, Yellow): 60%
- Velvetleaf plant response rating (0 to 100 scale) [6, 10]: 95
- pest or weed control at 31 g/ha ([6]; Abutilon theophrasti, post-emergence, 360 h, Postemergence, 31 g ai/ha, 0 to 100 scale (0 no effect, 100 complete control), read-out: Plant response rating, Velvetleaf): 90%
- pest or weed control at 125 g/ha ([6]; Abutilon theophrasti, post-emergence, 360 h, Postemergence, 125 g ai/ha, scale 0 to 100 (0 no effect, 100 complete control), read-out: Plant response rating, Velvetleaf): 95%
- pest or weed control at 250 g/ha ([6]; Abutilon theophrasti, post-emergence, 360 h, Postemergence, 250 g ai/ha, scale 0 to 100 (0 no effect, 100 complete control), 13 to 15 days, read-out: Plant response rating, Velvetleaf): 100%
- Ryegrass, Italian plant response rating (0 to 100 scale) [7, 10]: 0
- pest or weed control at 31 g/ha ([7]; Lolium multiflorum, post-emergence, Postemergence, 31 g ai/ha, 0 to 100 scale (0 no effect, 100 complete control), read-out: Plant response rating, Ryegrass, Italian): 0%
- pest or weed control at 125 g/ha ([7]; Lolium multiflorum, post-emergence, Postemergence, 125 g ai/ha, scale 0 to 100 (0 no effect, 100 complete control), read-out: Plant response rating, Ryegrass, Italian): 5%
- pest or weed control at 250 g/ha ([7]; Lolium multiflorum, post-emergence, Postemergence, 250 g ai/ha, scale 0 to 100 (0 no effect, 100 complete control), 13 to 15 days, read-out: Plant response rating, Ryegrass, Italian): 30%
- Kochia plant response rating (0 to 100 scale) [8, 10]: 85
- pest or weed control at 31 g/ha ([8]; Bassia scoparia, post-emergence, Postemergence, 31 g ai/ha, 0 to 100 scale (0 no effect, 100 complete control), read-out: Plant response rating, Kochia): 60%
- pest or weed control at 125 g/ha ([8]; Bassia scoparia, post-emergence, Postemergence, 125 g ai/ha, scale 0 to 100 (0 no effect, 100 complete control), read-out: Plant response rating, Kochia): 95%
- pest or weed control at 250 g/ha ([8]; Bassia scoparia, post-emergence, Postemergence, 250 g ai/ha, scale 0 to 100 (0 no effect, 100 complete control), 13 to 15 days, read-out: Plant response rating, Kochia): 98%
- Foxtail, Giant plant response rating (0 to 100 scale) [9, 10]: 95
- pest or weed control at 31 g/ha ([9]; Setaria faberi, post-emergence, Postemergence, 31 g ai/ha, 0 to 100 scale (0 no effect, 100 complete control), read-out: Plant response rating, Foxtail, Giant): 95%
